Drawing on patent US6573279B1, “Isoquinoline derivatives or salts thereof” (priority 1999, dated 2003), this text covers melting point for 43 compounds.

Structures can show the parent of a compound that is named as a salt.

For the compound `COc1cc2c(cc1OC)CN(C(=O)[C@@H]1CCCN(CCC(=O)Nc3ccc4c(c3)OCO4)C1)CC2` (as salt: tartrate) [Example 5, (−)-3-[(R)-3-(6,7-dimethoxy-1,2,3,4-tetrahydroisoquinoline-2-carbonyl)piperidino]-N-(3,4-methylenedioxyphenyl)propanamide L-tartrate], the melting point – broadly, the temperature of the solid-liquid transition – was 174 to 175 °C.
Next, `COc1cc(C(=O)NCCN2CCCC(C(=O)N3CCc4cc(OC)c(OC)cc4C3)C2)ccc1C` (stereo not shown) (as salt: salt) [Example 28]: 125 to 128 °C; `COc1cc2c(cc1OC)CN(C(=O)C1CCCN(CCNC(=O)c3ccc(F)c(C(F)(F)F)c3)C1)CC2` (stereo not shown) (as salt: salt) [Example 44]: 186 to 188 °C; `COc1ccc2c(c1)CCN(C(=O)C1CCCN(CCC(=O)Nc3ccc4c(c3)OCO4)C1)C2` (stereo not shown) (as salt: salt) [Example 17]: 179 to 180 °C.
The compound `COc1ccc(NC(=O)CCN2CCC=C(C(=O)N3CCc4cc(OC)c(OC)cc4C3)C2)cc1` [Example 23] came in with a melting point of 155 to 164 °C.
In the case of `COc1cc2c(cc1OC)CN(C(=O)C1CCCN(CCNC(=O)c3ccc(F)c(F)c3)C1)CC2` (stereo not shown) (as salt: salt) [Example 29], the melting point lay within 120 to 124 °C.
The figure for `COc1ccc(NC(=O)CCN2CCCC(C(=O)N3CCc4cc(OC)c(OC)cc4C3)C2)cc1OC` (racemic) (as salt: HCl) [Example 1, (±)-3-[3-(6,7-dimethoxy-1,2,3,4-tetrahydroisoquinoline-2-carbonyl)piperidino]-N-(3,4-dimethoxyphenyl)propanamide hydrochloride] is 154 to 156 °C; for `COc1ccc(C(=O)NCCN2CCCC(C(=O)N3CCc4cc(OC)c(OC)cc4C3)C2)cc1OC` (racemic) (as salt: HCl) [Example 11, (±)-N-{2-[3-(6,7-dimethoxy-1,2,3,4-tetrahydroisoquinoline-2-carbonyl)-piperidino]ethyl}-3,4-dimethoxybenzamide hydrochloride] it is 199 to 202 °C.
Next, `COc1cc2c(cc1OC)C(C)(C)CN(C(=O)C1CCCN(CCNC(=O)c3ccc4c(c3)OCO4)C1)C2` (stereo not shown) (as salt: salt) [Example 51]: 138 to 140 °C; `COc1cc2c(cc1OC)CN(C(=O)C1CCCN(CC(=O)Nc3ccc4c(c3)OCO4)C1)CC2` (racemic) (as salt: oxalate) [Example 8, (±)-2-[3-(6,7-dimethoxy-1,2,3,4-tetrahydroisoquinoline-2-carbonyl)piperidino]-N-(3,4-methylenedioxyphenyl)ethanamide oxalate]: 157 to 159 °C; `COc1cc2c(cc1OC)CN(C(=O)C1CCCN(CCNC(=O)c3ccc4c(c3)OCO4)C1)CC2` (racemic) (as salt: HCl) [Example 9, (±)-N-{2-[3-(6,7-dimethoxy-1,2,3,4-tetrahydrolsoquinoline-2-carbonyl)piperidino]ethyl}-3,4-methylenedioxybenzamide hydrochloride]: 182 to 185 °C.
The compound `COc1cc2c(cc1OC)CN(C(=O)C1CCCN(CCNC(=O)c3ccc(OC(C)C)cc3)C1)CC2` (stereo not shown) (as salt: salt) [Example 33] came in with a melting point of 116 to 119 °C.
Compound `CCOc1ccc(C(=O)NCCN2CCCC(C(=O)N3CCc4cc(OC)c(OC)cc4C3)C2)cc1` (stereo not shown) (as salt: salt) [Example 32] yielded a melting point of 125 to 127 °C.
The figure for `COc1cc2c(cc1OC)CN(C(=O)C1CCCN(CCC(=O)Nc3ccc4c(c3)OCO4)C1)CC2` (racemic) (as salt: HCl) [Example 2, (±)-3-[3-(6,7-dimethoxy-1,2,3,4-tetrahydroisoquinoline-2-carbonyl)piperidino]-N-(3,4-methylenedioxyphenyl)propanamide hydrochloride] is 226 to 228 °C.
The figure for `COc1cc2c(cc1OC)CN(C(=O)C1CN(CCNC(=O)c3ccc4c(c3)OCO4)C1)CC2` [Example 48] is 131 to 133 °C; for `COc1cc2c(cc1OC)CN(C(=O)C1CCCN(CCC(=O)Nc3ccc(C)c(F)c3)C1)CC2` (stereo not shown) (as salt: HCl) [Example 16] it is 183 to 185 °C.
Next, `COc1cc2c(cc1OC)CN(C(=O)C1CCCN(CCNC(=O)c3ccc(F)cc3)C1)CC2` (stereo not shown) (as salt: salt) [Example 40]: 137 to 141 °C; `COc1ccc(C(=O)NCCN2CCCC(C(=O)N3CCc4cc(OC)c(OC)cc4C3)C2)cc1C` (stereo not shown) (as salt: salt) [Example 26]: 114 to 117 °C; `COc1cc2c(cc1OC)CN(C(=O)C1CCCN(CCNC(=O)c3cccc(Br)c3)C1)CC2` (stereo not shown) (as salt: salt) [Example 41]: 133 to 136 °C.
`COc1ccc(NC(=O)CCN2CCCC(C(=O)N3CCc4cc(OC)c(OC)cc4C3)C2)cc1` (racemic) (as salt: HCl) [Example 4, (±)-3-[3-(6,7-dimethoxy-1,2,3,4-tetrahydroisoquinoline-2-carbonyl)piperidino]-N-(4-methoxyphenyl)propanamide hydrochloride] gave a melting point of 211 to 213 °C.
Next, `COc1cc2c(cc1OC)CN(C(=O)C1CCCN(CCNC(=O)c3ccc4c(c3)OC(F)(F)O4)C1)CC2` (stereo not shown) (as salt: salt) [Example 31]: 113 to 116 °C; `COc1cc2c(cc1OC)CN(C(=O)[C@H]1CCCN(CCC(=O)Nc3ccc4c(c3)OCO4)C1)CC2` (racemic) (as salt: fumarate) (hydrate or solvate) [Example 53, (±)-3-[(S)-3-(6,7-dimethoxy-1,2,3,4-tetrahydroisoquinoline-2-carbonyl)piperidino]-N-(3,4-methylenedioxyphenyl)propanamide fumarate]: 164 to 166 °C; `COc1cc(NC(=O)CCN2CCCC(C(=O)N3CCc4cc(OC)c(OC)cc4C3)C2)ccc1C` (stereo not shown) (as salt: HCl) [Example 15]: 171 to 173 °C.
Next, `COc1cc2c(cc1OC)CN(C(=O)[C@@H]1CCCN(CCNC(=O)c3ccc(F)cc3)C1)CC2` (as salt: salt) (hydrate or solvate) [Example 49]: 197 to 199 °C.
The compound `O=C(CCN1CCCC(C(=O)N2CCc3ccccc3C2)C1)Nc1ccc2c(c1)OCO2` (stereo not shown) (as salt: salt) [Example 18] displayed a melting point of 195 to 196 °C.
In turn, `COc1cc2c(cc1OC)CN(C(=O)[C@H]1CCCN(CCNC(=O)c3ccc(F)cc3)C1)CC2` (as salt: salt) (hydrate or solvate) [Example 50] returned a melting point of 187 to 191 °C.
The figure for `COc1cc2c(cc1OC)CN(C(=O)C1CCCN(CCNC(=O)c3ccc(F)c(Cl)c3)C1)CC2` (stereo not shown) (as salt: salt) [Example 45] is 111 to 112 °C; for `COc1cc(NC(=O)CCN2CCCC(C(=O)N3CCc4cc(OC)c(OC)cc4C3)C2)cc(OC)c1` (racemic) (as salt: oxalate) [Example 3, (±)-3-[3-(6,7-dimethoxy-1,2,3,4-tetrahydroisoquinoline-2-carbonyl)piperidino]-N-(3,5-dimethoxyphenyl)propanamide 1/2 oxalate] it is 187 to 192 °C; for `COc1cc2c(cc1OC)C(C)(C)CN(C(=O)C1CCCN(CCC(=O)Nc3ccc4c(c3)OCO4)C1)C2` (stereo not shown) (as salt: HCl) [Example 25] it is 225 to 228 °C.
Compound `COc1cc2c(cc1OC)CN(C(=O)C1CCCN(CCNC(=O)c3ccc4c(c3)OCC(=O)N4C)C1)CC2` (stereo not shown) (as salt: salt) [Example 34] came in with a melting point of 130 to 138 °C.
`COc1cc2c(cc1OC)CN(C(=O)[C@H]1CCCN(CCC(=O)Nc3ccc4c(c3)OCO4)C1)CC2` (as salt: tartrate) [Example 6, (+)-3-[(S)-3-(6,7-dimethoxy-1,2,3,4-tetrahydroisoquinoline-2-carbonyl)piperidino]-N-(3,4-methylenedioxyphenyl)propanamide D-tartrate] showed a melting point of 175 to 177 °C.
As to `COc1cc2c(cc1OC)CN(C(=O)C1=CCCN(CCC(=O)Nc3ccc4c(c3)OCO4)C1)CC2` [Example 22], the melting point was in the range of 159 to 160 °C.
Next, `COc1ccc(C(=O)NCCN2CCCC(C(=O)N3CCc4cc(OC)c(OC)cc4C3)C2)cc1F` (stereo not shown) (as salt: salt) [Example 27]: 113 to 116 °C; `COc1cc2c(cc1OC)CN(C(=O)C1CCN(CCC(=O)Nc3ccc4c(c3)OCO4)CC1)CC2` (as salt: HCl) [Example 19]: 203 to 206 °C; `COc1cc2c(cc1OC)CN(C(=O)C1CCCN(CCC(=O)Nc3ccc4c(c3)OCO4)C1)CCC2` (stereo not shown) (as salt: salt) [Example 20]: 180 to 181 °C.
The figure for `COc1cc2c(cc1OC)CN(C(=O)C1=CCCN(CCNC(=O)c3ccc4c(c3)OCO4)C1)CC2` [Example 46] is 162 to 164 °C; for `COc1cc2c(cc1OC)CN(C(=O)C1CCCN(CCC(=O)Nc3ccc4ncsc4c3)C1)CC2` (stereo not shown) (as salt: HCl) [Example 14] it is 183 to 185 °C; for `COc1ccc(NC(=O)CCN2CCCC(C(=O)N3CCc4cc(OC)c(OC)cc4C3)C2)cn1` (stereo not shown) (as salt: salt) [Example 21] it is 182 to 185 °C.
Regarding `COc1cc2c(cc1OC)CN(C(=O)C1CCCN(CCC(=O)Nc3cccc(Cl)c3)C1)CC2` (stereo not shown) (as salt: HCl) [Example 12], the melting point lay within 181 to 185 °C.
Next, `COc1cc2c(cc1OC)CN(C(=O)C1CCCN(CCNC(=O)c3ccc4c(c3)N(C)C(=O)CO4)C1)CC2` (stereo not shown) (as salt: salt) [Example 35]: 124 to 133 °C; `COc1cc2c(cc1OC)CN(C(=O)C1CCCN(CCNC(=O)c3ccc(F)cc3F)C1)CC2` (stereo not shown) (as salt: salt) [Example 43]: 178 to 180 °C.
Next, `COc1cc(OC)cc(C(=O)NCCN2CCCC(C(=O)N3CCc4cc(OC)c(OC)cc4C3)C2)c1` (stereo not shown) (as salt: salt) [Example 42]: 166 to 167 °C; `COc1cccc(C(=O)NCCN2CCCC(C(=O)N3CCc4cc(OC)c(OC)cc4C3)C2)c1` (racemic) (as salt: oxalate) [Example 10, (±)-N-{2-[3-(6,7-dimethoxy-1,2,3,4-tetrahydroisoquinoline-2-carbonyl)-piperidino]ethyl}-3-methoxybenzamide oxalate]: 120 to 123 °C.
